Earlier results in US8497290B2, “Thiocolchicine derivatives, method of making and methods of use thereof” (priority 2009, dated 2013).

System: rat model
Conditions: metabolites of thiocolchicoside, compared with thiocolchicoside

COc1c(O[C@@H]2O[C@H](C(=O)O)[C@@H](O)[C@H](O)[C@H]2O)cc2c(c1OC)-c1ccc(SC)c(=O)cc1[C@@H](NC(C)=O)CC2 [3-O-glucuronidated aglycone derivative, (7S)-7-(acetylamino)-5,6,7,9-tetrahydro-1,2-dimethoxy-10-(methylthio)-9-oxobenzo[a]heptalen-3-yl β-D-glucopyranosiduronic acid]
muscle relaxant activity: muscle relaxant activity similar to that of thiocolchicoside
